Data: patent publication US10391108B2 (BioPharmX, Inc., priority 2015, dated 2019)

System: P. acnes ATCC 6919
Assay: Minimum Inhibitory Concentration (MIC), broth microdilution
Assay type: cell-based
Settings: 37° C., 2 days, anaerobic, tested 0.0078 to 16 μg/mL
Procedure: The antimicrobial activity of minocycline was assessed by measuring the Minimum Inhibitory Concentration (MIC). MIC was also assessed for several other materials and combinations and relative MIC values were calculated as multiples of the minocycline MIC value. […] Test material was dissolved in water, diluted by two-fold serial titrations for a total of 11 concentrations. A 96-well plate was prepared by adding 196 μL of broth medium seeded with a strain of P. acnes ATCC 6919 bacteria. A 4 μL aliquot of a test substance dilution was added to each well to bring the total volume in each well to 200 μL. The test substance concentrations tested ranged from 0.0078 to 16 μg/mL. Plates were incubated at 37° C. for 2 days in anaerobic conditions. 96-well plates were read by a TECAN […] F50 ELISA microplate reader (Männedorf, Switzerland) in absorbance mode with a wavelength of 620 nm. Each well was evaluated for whether growth occurred or was inhibited. The lowest concentration for which growth was inhibited was recorded as the MIC. Each test substance was evaluated in duplicate.

**Q.** [Cl-].[Cl-].[Mg+2] [Magnesium chloride, magnesium chloride] was tested. Which MIC value did it give?
**A.** did not inhibit growth at any of the concentrations tested
